Active and inactive are the calls of the source. The rule behind the calls is not given here.
How the values were obtained:
HL-60(TB) = experiment: Antitumor activity against human HL-60(TB) cells assessed as cell growth inhibition at 10 uM incubated for 48 hrs by sulforhodamine B assay; assay type: functional; conditions: read-out: GI
MOLT-4 = experiment: Antitumor activity against human MOLT4 cells assessed as cell growth inhibition at 10 uM incubated for 48 hrs by sulforhodamine B assay; assay type: functional; conditions: read-out: GI
EKVX = experiment: Antitumor activity against human EKVX cells assessed as cell growth inhibition at 10 uM incubated for 48 hrs by sulforhodamine B assay; assay type: functional; conditions: read-out: GI
NCI-H522 = experiment: Antitumor activity against human NCI-H522 cells assessed as cell growth inhibition at 10 uM incubated for 48 hrs by sulforhodamine B assay; assay type: functional; conditions: read-out: GI
KM12 = experiment: Antitumor activity against human KM12 cells assessed as cell growth inhibition at 10 uM incubated for 48 hrs by sulforhodamine B assay; assay type: functional; conditions: read-out: GI
SF-268 = experiment: Antitumor activity against human SF268 cells assessed as cell growth inhibition at 10 uM incubated for 48 hrs by sulforhodamine B assay; assay type: functional; conditions: read-out: GI
U-251 = experiment: Antitumor activity against human U251 cells assessed as cell growth inhibition at 10 uM incubated for 48 hrs by sulforhodamine B assay; assay type: functional; conditions: read-out: GI
MDA-MB-435 = experiment: Antitumor activity against human MDA-MB-435 cells assessed as cell growth inhibition at 10 uM incubated for 48 hrs by sulforhodamine B assay; assay type: functional; conditions: read-out: GI
OVCAR-3 = experiment: Antitumor activity against human OVCAR-3 cells assessed as cell growth inhibition at 10 uM incubated for 48 hrs by sulforhodamine B assay; assay type: functional; conditions: read-out: GI
OVCAR-4 = experiment: Antitumor activity against human OVCAR-4 cells assessed as cell growth inhibition at 10 uM incubated for 48 hrs by sulforhodamine B assay; assay type: functional; conditions: read-out: GI
SK-OV-3 = experiment: Antitumor activity against human SK-OV-3 cells assessed as cell growth inhibition at 10 uM incubated for 48 hrs by sulforhodamine B assay; assay type: functional; conditions: read-out: GI
SN12C = experiment: Antitumor activity against human SN12C cells assessed as cell growth inhibition at 10 uM incubated for 48 hrs by sulforhodamine B assay; assay type: functional; conditions: read-out: GI
UO-31 = experiment: Antitumor activity against human UO-31 cells assessed as cell growth inhibition at 10 uM incubated for 48 hrs by sulforhodamine B assay; assay type: functional; conditions: read-out: GI
MCF7 = experiment: Antitumor activity against human MCF7 cells assessed as cell growth inhibition at 10 uM incubated for 48 hrs by sulforhodamine B assay; assay type: functional; conditions: read-out: GI
MDA-MB-231 = experiment: Antitumor activity against human MDA-MB-231/ATCC cells assessed as cell growth inhibition at 10 uM incubated for 48 hrs by sulforhodamine B assay; assay type: functional; conditions: read-out: GI
Hs-578T = experiment: Antitumor activity against human HS 578T cells assessed as cell growth inhibition at 10 uM incubated for 48 hrs by sulforhodamine B assay; assay type: functional; conditions: read-out: GI
BT-549 = experiment: Antitumor activity against human BT-549 cells assessed as cell growth inhibition at 10 uM incubated for 48 hrs by sulforhodamine B assay; assay type: functional; conditions: read-out: GI
A549 [1] = experiment: Cytotoxicity against human A549/ATCC assessed as reduction in cell viability after 48 hrs by MTT assay; assay type: functional, cell-based; conditions: A549, 48 h
A549 [2] = experiment: Cytotoxicity against human A549/ATCC assessed as reduction in cell viability at 100 uM after 48 hrs by MTT assay; assay type: functional
A549 [3] = experiment: Cytotoxicity against human A549/ATCC assessed as reduction in cell viability at 1 uM after 48 hrs by MTT assay; assay type: functional
A549 [4] = experiment: Cytotoxicity against human A549/ATCC assessed as reduction in cell viability at 0.1 uM after 48 hrs by MTT assay; assay type: functional
A549 [5] = experiment: Cytotoxicity against human A549/ATCC assessed as reduction in cell viability at 0.01 uM after 48 hrs by MTT assay; assay type: functional
HEK293 [6] = experiment: Cytotoxicity against human HEK293 assessed as reduction in cell viability at 10 uM after 48 hrs by MTT assay; assay type: cell-based; conditions: hek293, 48 h
HEK293 [7] = experiment: Cytotoxicity against human HEK293 assessed as reduction in cell viability at 1 uM after 48 hrs by MTT assay; assay type: cell-based; conditions: hek293, 48 h
HEK293 [8] = experiment: Cytotoxicity against human HEK293 assessed as reduction in cell viability at 0.01 uM after 48 hrs by MTT assay; assay type: cell-based; conditions: hek293, 48 h
Calf thymus DNA [9] = experiment: Binding affinity to calf thymus DNA assessed as binding constant by UV-Vis absorption spectrophotometric method based Benesi-Hildebrand equation analysis; assay type: nucleic-acid assay; conditions: Bos taurus
Calf thymus DNA [10] = experiment: Binding affinity to calf thymus DNA assessed as DNA intercalation by measuring increase in melting temperature of DNA at 10 uM by thermal denaturation based spectrophotometric analysis; assay type: nucleic-acid assay; conditions: Bos taurus
Calf thymus DNA [11] = experiment: Binding affinity to calf thymus DNA assessed as quenching in emission band at 600 nm by ethidium bromide competitive displacement assay; assay type: nucleic-acid assay; conditions: Bos taurus
Calf thymus DNA [12] = experiment: Binding affinity to calf thymus DNA (unknown origin) assessed as binding constant by ethidium bromide competitive displacement assay; assay type: nucleic-acid assay; conditions: Bos taurus
Calf thymus DNA [13] = experiment: Binding affinity to calf thymus DNA assessed as DNA intercalation by measuring decrease in intensity of CD band at 250 nm at 1 uM by CD spectroscopy; assay type: nucleic-acid assay; conditions: Bos taurus
Calf thymus DNA [14] = experiment: Binding affinity to calf thymus DNA assessed as DNA intercalation by measuring increase in intensity of CD band at 281 nm at 1 uM by CD spectroscopy; assay type: nucleic-acid assay; conditions: Bos taurus
DNA [15] = experiment: Binding affinity to human DNA in blood assessed as DNA intercalation by measuring hypochromic shift at 398 nm at 20 uM by UV-Vis spectral titration analysis; assay type: tissue-based
DNA [16] = experiment: Binding affinity to human DNA in blood assessed as Stern-Volmer quenching constant by fluorescence emission spectrum analysis; assay type: tissue-based
DNA [17] = experiment: Binding affinity to human DNA in blood assessed as quenching constant by fluorescence emission spectrum analysis; assay type: tissue-based
Albumin [18] = molecular target: T1, Albumin (Bos taurus, UniProt P02769); experiment: Binding affinity to bovine serum albumin assessed as appearance of new fluorescence band at 510 nm at 0-12 uM by fluorescence emission spectrum analysis; assay type: ADME, cell-free; conditions: cattle
T1 sequence (P02769 whole entry): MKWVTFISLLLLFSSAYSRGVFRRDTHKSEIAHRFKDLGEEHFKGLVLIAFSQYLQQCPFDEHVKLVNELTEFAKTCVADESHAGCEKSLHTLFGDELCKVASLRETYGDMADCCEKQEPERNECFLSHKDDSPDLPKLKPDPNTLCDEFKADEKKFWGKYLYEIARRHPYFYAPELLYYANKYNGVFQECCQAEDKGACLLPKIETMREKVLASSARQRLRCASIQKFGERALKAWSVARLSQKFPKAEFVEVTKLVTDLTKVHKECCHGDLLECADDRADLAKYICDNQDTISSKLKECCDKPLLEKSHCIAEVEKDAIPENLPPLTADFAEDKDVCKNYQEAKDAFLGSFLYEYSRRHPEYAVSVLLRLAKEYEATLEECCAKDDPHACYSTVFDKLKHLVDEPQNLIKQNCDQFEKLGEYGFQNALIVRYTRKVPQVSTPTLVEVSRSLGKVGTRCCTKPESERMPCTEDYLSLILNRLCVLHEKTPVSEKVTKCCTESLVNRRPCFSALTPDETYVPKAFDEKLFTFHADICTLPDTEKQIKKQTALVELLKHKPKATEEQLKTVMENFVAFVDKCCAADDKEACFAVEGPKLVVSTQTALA

Albumin [19] = molecular target: T1, Albumin; experiment: Binding affinity to bovine serum albumin assessed as binding constant at 298K by fluorescence emission spectrum analysis; assay type: ADME, cell-free; conditions: cattle
Albumin [20] = molecular target: T1, Albumin; experiment: Binding affinity to bovine serum albumin assessed as binding constant at 318K by fluorescence emission spectrum analysis; assay type: ADME, cell-free; conditions: cattle
Albumin [21] = molecular target: T1, Albumin; experiment: Binding affinity to bovine serum albumin assessed as hydrogen bonding interaction by measuring change in enthalpy at 298K by thermodynamic based analysis; assay type: ADME, cell-free; conditions: cattle
Albumin [22] = molecular target: T1, Albumin; experiment: Binding affinity to bovine serum albumin assessed as hydrophobic interaction by measuring change in entropy at 298K by thermodynamic based analysis; assay type: ADME, cell-free; conditions: cattle
Albumin [23] = molecular target: T2, Albumin (Homo sapiens, UniProt P02768); experiment: Binding affinity to human serum albumin assessed as increase in peak absorption intensity at 280 nm at 0-7 uM by UV-Vis absorption spectroscopy; assay type: ADME, cell-free; conditions: 0.28 µM
T2 sequence (P02768 whole entry): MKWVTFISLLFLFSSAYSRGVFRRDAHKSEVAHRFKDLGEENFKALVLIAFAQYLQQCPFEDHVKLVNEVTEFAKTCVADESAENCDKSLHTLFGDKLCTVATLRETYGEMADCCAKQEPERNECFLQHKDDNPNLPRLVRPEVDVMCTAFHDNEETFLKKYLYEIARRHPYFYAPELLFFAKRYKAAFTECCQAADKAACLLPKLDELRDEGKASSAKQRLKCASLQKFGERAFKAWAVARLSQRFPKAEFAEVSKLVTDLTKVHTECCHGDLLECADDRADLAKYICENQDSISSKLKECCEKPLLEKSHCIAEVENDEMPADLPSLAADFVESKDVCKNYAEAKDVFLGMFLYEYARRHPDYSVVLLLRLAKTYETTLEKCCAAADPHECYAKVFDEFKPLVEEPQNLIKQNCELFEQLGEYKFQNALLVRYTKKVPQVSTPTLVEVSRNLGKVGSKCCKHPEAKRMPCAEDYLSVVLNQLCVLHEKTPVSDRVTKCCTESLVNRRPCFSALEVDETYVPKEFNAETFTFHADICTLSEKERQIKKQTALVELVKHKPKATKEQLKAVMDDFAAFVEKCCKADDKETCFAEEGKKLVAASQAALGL

Albumin [24] = molecular target: T2, Albumin; experiment: Binding affinity to human serum albumin assessed as decrease in emission peak intensity band at 348 nm at 0-13 uM by fluorescence emission spectroscopy; assay type: ADME, cell-free; conditions: 0.348 µM
Albumin [25] = molecular target: T2, Albumin; experiment: Binding affinity to human serum albumin assessed as Stern-Volmer quenching constant by fluorescence emission spectroscopy; assay type: ADME, cell-free
DNA [26] = experiment: Binding affinity to human DNA in blood assessed as DNA intercalation by measuring increase in fluorescence emission intensity at 498 nm at 20 uM by fluorescence emission spectral analysis; assay type: tissue-based

O=C1NC(=O)/C(=C/c2ccc(-c3nc4c5ccccc5c5ccccc5c4[nH]3)cc2)S1
inhibition of growth at 10 µM (HL-60(TB)): 57.7%
inhibition of growth at 10 µM (MOLT-4): 47.1%
inhibition of growth at 10 µM (EKVX): 11.5%
inhibition of growth at 10 µM (NCI-H522): 47.6%
inhibition of growth at 10 µM (KM12): 43.9%
inhibition of growth at 10 µM (SF-268): 12.3%
inhibition of growth at 10 µM (U-251): 30.3%
inhibition of growth at 10 µM (MDA-MB-435): 67.4%
inhibition of growth at 10 µM (OVCAR-3): 21.3%
inhibition of growth at 10 µM (OVCAR-4): < 10%
inhibition of growth at 10 µM (SK-OV-3): < 10%
inhibition of growth at 10 µM (SN12C): < 10%
inhibition of growth at 10 µM (UO-31): 25.5%
inhibition of growth at 10 µM (MCF7): 46.1%
inhibition of growth at 10 µM (MDA-MB-231): 15.6%
inhibition of growth at 10 µM (Hs-578T): 17.6%
inhibition of growth at 10 µM (BT-549): 63.7%
IC50 (A549 [1]): 1.7 µM
Activity (A549 [2]): 90%
Activity (A549 [3]): 75%
Activity (A549 [4]): 59%
Activity (A549 [5]): 42%
Activity (HEK293 [6]): 9%
Activity (HEK293 [7]): 6%
Activity (HEK293 [8]): 4%
Kb (Calf thymus DNA [9]): 2.95 10^4/M
ΔTm (Calf thymus DNA [10]): 7.1 °C
Activity (Calf thymus DNA [11]): Active
Kb (Calf thymus DNA [12]): 1 10^5/M
Activity (Calf thymus DNA [13]): Active
Activity (Calf thymus DNA [14]): Active
Activity (DNA [15]): Active
KSV (DNA [16]): 3.46 10^3/M
Kq (DNA [17]): 3.46 10^11/M/s
Activity (Albumin [18]): Active
Kb (Albumin [19]): 4.06 10^6/M
Kb (Albumin [20]): 2.97 10^6/M
deltaH (Albumin [21]): -12.2 kJ/mol
deltaS (Albumin [22]): 20.43 cal/mol.K
Activity (Albumin [23]): Active
Activity (Albumin [24]): Active
KSV (Albumin [25]): 3.01 10^6/M
Activity (DNA [26]): Active

Reference: ChEMBL document CHEMBL4665624, “Synthesis of 5-(4-(1H-phenanthro[9,10-d]imidazol-2-yl)benzylidene)thiazolidine-2,4-dione as promising DNA and serum albumin-binding agents and evaluation of antitumor activity” (Eur J Med Chem, 2019)
